Results from patent US10280170B2, “Substituted 4,5,6,7-tetrahydro-pyrazolo[1,5-a]pyrazine derivatives and 5,6,7,8-tetrahydro-4H-pyrazolo[1,5-a][1,4]diazepine derivatives as Ros1 inhibitors” (Janssen Pharmaceutica NV, priority 2014, dated 2019).
Like-named read-outs stand apart in the source and are kept apart here.

Key:
Ros1 enzyme = molecular target: T1, Ros1 enzyme (Homo sapiens, UniProt P08922); test: Ros1 enzymatic assay; type: biochemical; conditions: Ros1 enzymatic assay; read-out: ROS1 pIC50 (converted)
T1 construct: 0.5 μg/ml Ros1 enzyme
Method: Compounds were spotted onto white 384-well Proxiplate plus plates (Perkin Elmer) to which 5 μl of enzyme mix (0.5 μg/ml Ros1 enzyme, 50 mM Tris-HCl pH7.5, 1 mM EGTA, 10 mM MgCl2, 0.01% Tween-20) and 5 μl of substrate mix (6 μg/ml IRS-Tide [American Peptide Company], 20 μM ATP, 13.33 μCi/ml ATP (adenosine 5′-triphosphate) P^33, 50 mM Tris-HCl pH7.5, 1 mM EGTA (ethylene glycol-bis(2-aminoethylether)-N,N,N′,N′-tetraacetic acid), 10 mM MgCl2, 0.01% Tween-20) were added. After incubation for 120 minutes at room temperature, 10 μl of stop reaction buffer (5 mM EDTA, 50 μM ATP, 0.1% BSA (bovine serum albumin), 0.1% Triton X-100, 50 mM Tris-HCl pH7.5, 1 mM EGTA, 10 mM MgCl2, 0.01% Tween-20) containing 2 mg/ml streptavidin coupled polystyrene imaging beads (Amersham Biosciences) was added and incubated for 15 minutes at room temperature. Plates were centrifuged for 3 minutes at 1500 rpm and signals detected in a LEADseeker imaging system (GE).

[1] = test system: Ba/F3 cells containing Ros1 wild-type protein + IL-3; test: Ba/F3-Ros1 cell proliferation counter-screen, wild-type protein in the presence of 10 ng/ml murine IL-3; type: cell-based; conditions: Mus musculus, BaF3, 24 h, read-out: BaF3-ROS1 + IL3 pIC50 (converted)
Method: (§1) This assay was carried out with Ba/F3 cells containing three different versions of Ros1: the wild-type protein, protein with a mutation at the gatekeeper residue (L2026M), and protein with a mutation identified in a tumor from a patient that became resistant to crizotinib (Xalkori®) treatment (G2032R). Compounds were solubilized in 100% DMSO (dimethyl sulfoxide) and sprayed into polystyrene, tissue culture treated 384-well plates. A 50 μl volume of cell culture medium (phenol red free RPMI-1640, 10% FBS (fetal bovine serum), 2 mM L-Glutamine) containing 20000 Ba/F3-Ros1 cells was added to each well and the plates were placed in an incubator at 37° C. and 5% CO2. After 24 hours, 10 μl of Alamar Blue solution (0.5 mM K3Fe(CN)6, 0.5 mM K4Fe(CN)6, 0.15 mM Resazurin and 100 mM Phosphate Buffer) was added to the wells, incubated for 4 hours at 37° C. and 5% CO2 before RFU's (Relative Fluorescence Units) (ex. 540 nm., em. 590 nm.) were measured in a fluorescence plate reader.
As a counter-screen the same experiment was performed for the wild-type protein in the presence of 10 ng/ml murine IL-3.

[2] = molecular target: T2, Ba/F3 cells containing Ros1 wild-type protein (Homo sapiens, UniProt P08922, cells depend on it, form not given); test: Ba/F3-Ros1 cell proliferation assay, wild-type Ros1; type: cell-based, murine; conditions: without IL-3
T2 construct: The background only speaks of 'a number of different unrelated proteins' and names SLC34A2-ROS1 for HCC78 cells
Method: (§2) Ba/F3-Ros1 Cell Proliferation Assay
as §1

[3] = molecular target: Ba/F3 cells containing Ros1 with a mutation at the gatekeeper residue (L2026M) (Homo sapiens, UniProt P08922, L2026M, cells depend on it, form not given); test: Ba/F3-Ros1 cell proliferation assay, L2026M gatekeeper mutant; type: cell-based, murine; conditions: without IL-3
Method: as §2, §1

[4] = test system: HCC78 non-small cell lung cancer cells; test: HCC78 cell proliferation assay; type: cell-based; conditions: for EC50: Homo sapiens, HCC78, 96 h, read-out: HCC-78 PROL pEC50 (converted)
Method: HCC78 Cell Proliferation Assay
Approximately 1000 HCC78 non-small cell lung cancer cells in 180 μl of cell culture medium (RPMI-1640, 10% FBS, 2 mM L-Glutamine, 10 mM Hepes, 1 mM sodium pyruvate, 4.5 g/L glucose, 1.5 g/L sodium bicarbonate, 25 μg/ml Gentamycin) were seeded in each well of a 96-well polystyrene, tissue-culture treated plate and incubated at 37° C. and 5% CO2. After 24 hours, compounds were diluted in cell culture medium from which 20 μl was added to the wells containing cells and incubated for 4 days at 37° C. and 5% CO2. A 5 mg/ml solution of the tetrazolium dye MTT was prepared in PBS (phosphate-buffered saline) and 25 μl was added to each well. After 2 hours the medium was removed and replaced by 125 μL of 4/1 DMSO/glycine buffer (0.1M glycine, 0.1M NaCl, pH 10.5) before absorbance was determined at 538 nm.

[5] = counter-screen, wild-type, 10 ng/ml murine IL-3

T1 sequence (P08922 28-2347): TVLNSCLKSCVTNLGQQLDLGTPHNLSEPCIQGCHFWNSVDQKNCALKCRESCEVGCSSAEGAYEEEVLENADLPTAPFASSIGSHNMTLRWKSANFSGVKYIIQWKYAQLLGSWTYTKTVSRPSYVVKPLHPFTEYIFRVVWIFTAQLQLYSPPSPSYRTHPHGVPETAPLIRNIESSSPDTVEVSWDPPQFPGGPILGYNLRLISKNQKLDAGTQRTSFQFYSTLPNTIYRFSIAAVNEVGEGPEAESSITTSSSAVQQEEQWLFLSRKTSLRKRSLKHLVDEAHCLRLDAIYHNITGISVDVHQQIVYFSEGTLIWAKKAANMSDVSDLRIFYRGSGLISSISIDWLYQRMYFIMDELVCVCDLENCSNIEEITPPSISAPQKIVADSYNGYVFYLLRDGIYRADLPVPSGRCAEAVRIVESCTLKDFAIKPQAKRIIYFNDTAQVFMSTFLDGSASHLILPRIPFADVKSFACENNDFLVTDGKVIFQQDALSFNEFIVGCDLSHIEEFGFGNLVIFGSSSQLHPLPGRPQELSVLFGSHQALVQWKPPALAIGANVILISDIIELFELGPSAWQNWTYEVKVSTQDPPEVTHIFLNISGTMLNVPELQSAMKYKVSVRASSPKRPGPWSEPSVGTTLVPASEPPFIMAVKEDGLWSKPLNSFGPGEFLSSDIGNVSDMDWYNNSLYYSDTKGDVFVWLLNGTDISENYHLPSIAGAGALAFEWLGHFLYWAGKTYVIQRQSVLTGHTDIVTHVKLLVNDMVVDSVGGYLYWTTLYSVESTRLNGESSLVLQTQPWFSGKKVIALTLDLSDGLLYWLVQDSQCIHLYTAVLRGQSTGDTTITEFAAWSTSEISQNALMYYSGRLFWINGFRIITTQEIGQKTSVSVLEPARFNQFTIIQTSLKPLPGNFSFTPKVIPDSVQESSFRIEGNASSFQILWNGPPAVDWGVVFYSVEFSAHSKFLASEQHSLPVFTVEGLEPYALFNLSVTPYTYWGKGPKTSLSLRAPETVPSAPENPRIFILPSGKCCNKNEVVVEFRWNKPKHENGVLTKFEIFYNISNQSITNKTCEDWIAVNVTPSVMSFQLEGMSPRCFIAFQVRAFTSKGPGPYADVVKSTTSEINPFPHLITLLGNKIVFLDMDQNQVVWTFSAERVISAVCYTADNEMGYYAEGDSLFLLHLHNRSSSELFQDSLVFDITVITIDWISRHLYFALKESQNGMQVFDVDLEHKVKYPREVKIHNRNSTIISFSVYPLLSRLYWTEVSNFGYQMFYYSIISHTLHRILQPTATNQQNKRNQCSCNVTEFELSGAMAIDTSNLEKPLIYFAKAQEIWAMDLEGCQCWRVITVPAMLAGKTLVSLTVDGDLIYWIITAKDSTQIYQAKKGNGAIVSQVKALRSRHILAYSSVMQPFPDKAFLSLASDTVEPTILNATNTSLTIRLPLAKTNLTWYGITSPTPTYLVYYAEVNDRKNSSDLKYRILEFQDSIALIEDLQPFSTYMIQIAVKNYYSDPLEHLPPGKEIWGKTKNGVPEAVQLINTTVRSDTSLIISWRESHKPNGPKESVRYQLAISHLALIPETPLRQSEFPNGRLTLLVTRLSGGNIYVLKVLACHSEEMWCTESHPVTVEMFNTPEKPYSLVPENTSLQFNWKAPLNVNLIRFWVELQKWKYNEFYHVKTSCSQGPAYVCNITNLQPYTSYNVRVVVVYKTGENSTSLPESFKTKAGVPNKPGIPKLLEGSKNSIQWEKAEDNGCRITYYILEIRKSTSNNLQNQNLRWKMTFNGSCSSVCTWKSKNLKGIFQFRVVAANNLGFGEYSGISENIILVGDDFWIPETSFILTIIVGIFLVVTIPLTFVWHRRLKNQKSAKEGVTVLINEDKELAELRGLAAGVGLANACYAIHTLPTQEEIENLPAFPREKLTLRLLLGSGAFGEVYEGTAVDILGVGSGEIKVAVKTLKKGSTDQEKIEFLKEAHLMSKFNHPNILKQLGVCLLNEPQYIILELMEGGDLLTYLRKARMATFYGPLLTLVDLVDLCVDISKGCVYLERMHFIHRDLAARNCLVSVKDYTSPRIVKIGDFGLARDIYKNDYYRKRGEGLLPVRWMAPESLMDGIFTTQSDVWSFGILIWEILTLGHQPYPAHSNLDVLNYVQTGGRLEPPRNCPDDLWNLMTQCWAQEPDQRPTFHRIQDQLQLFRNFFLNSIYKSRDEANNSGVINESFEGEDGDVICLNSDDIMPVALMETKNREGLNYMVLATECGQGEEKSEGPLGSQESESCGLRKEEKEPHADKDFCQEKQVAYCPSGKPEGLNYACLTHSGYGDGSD
Chain of Ba/F3 cells containing Ros1 with a mutation at the gatekeeper residue (L2026M) (P08922 whole entry L2026M, form open): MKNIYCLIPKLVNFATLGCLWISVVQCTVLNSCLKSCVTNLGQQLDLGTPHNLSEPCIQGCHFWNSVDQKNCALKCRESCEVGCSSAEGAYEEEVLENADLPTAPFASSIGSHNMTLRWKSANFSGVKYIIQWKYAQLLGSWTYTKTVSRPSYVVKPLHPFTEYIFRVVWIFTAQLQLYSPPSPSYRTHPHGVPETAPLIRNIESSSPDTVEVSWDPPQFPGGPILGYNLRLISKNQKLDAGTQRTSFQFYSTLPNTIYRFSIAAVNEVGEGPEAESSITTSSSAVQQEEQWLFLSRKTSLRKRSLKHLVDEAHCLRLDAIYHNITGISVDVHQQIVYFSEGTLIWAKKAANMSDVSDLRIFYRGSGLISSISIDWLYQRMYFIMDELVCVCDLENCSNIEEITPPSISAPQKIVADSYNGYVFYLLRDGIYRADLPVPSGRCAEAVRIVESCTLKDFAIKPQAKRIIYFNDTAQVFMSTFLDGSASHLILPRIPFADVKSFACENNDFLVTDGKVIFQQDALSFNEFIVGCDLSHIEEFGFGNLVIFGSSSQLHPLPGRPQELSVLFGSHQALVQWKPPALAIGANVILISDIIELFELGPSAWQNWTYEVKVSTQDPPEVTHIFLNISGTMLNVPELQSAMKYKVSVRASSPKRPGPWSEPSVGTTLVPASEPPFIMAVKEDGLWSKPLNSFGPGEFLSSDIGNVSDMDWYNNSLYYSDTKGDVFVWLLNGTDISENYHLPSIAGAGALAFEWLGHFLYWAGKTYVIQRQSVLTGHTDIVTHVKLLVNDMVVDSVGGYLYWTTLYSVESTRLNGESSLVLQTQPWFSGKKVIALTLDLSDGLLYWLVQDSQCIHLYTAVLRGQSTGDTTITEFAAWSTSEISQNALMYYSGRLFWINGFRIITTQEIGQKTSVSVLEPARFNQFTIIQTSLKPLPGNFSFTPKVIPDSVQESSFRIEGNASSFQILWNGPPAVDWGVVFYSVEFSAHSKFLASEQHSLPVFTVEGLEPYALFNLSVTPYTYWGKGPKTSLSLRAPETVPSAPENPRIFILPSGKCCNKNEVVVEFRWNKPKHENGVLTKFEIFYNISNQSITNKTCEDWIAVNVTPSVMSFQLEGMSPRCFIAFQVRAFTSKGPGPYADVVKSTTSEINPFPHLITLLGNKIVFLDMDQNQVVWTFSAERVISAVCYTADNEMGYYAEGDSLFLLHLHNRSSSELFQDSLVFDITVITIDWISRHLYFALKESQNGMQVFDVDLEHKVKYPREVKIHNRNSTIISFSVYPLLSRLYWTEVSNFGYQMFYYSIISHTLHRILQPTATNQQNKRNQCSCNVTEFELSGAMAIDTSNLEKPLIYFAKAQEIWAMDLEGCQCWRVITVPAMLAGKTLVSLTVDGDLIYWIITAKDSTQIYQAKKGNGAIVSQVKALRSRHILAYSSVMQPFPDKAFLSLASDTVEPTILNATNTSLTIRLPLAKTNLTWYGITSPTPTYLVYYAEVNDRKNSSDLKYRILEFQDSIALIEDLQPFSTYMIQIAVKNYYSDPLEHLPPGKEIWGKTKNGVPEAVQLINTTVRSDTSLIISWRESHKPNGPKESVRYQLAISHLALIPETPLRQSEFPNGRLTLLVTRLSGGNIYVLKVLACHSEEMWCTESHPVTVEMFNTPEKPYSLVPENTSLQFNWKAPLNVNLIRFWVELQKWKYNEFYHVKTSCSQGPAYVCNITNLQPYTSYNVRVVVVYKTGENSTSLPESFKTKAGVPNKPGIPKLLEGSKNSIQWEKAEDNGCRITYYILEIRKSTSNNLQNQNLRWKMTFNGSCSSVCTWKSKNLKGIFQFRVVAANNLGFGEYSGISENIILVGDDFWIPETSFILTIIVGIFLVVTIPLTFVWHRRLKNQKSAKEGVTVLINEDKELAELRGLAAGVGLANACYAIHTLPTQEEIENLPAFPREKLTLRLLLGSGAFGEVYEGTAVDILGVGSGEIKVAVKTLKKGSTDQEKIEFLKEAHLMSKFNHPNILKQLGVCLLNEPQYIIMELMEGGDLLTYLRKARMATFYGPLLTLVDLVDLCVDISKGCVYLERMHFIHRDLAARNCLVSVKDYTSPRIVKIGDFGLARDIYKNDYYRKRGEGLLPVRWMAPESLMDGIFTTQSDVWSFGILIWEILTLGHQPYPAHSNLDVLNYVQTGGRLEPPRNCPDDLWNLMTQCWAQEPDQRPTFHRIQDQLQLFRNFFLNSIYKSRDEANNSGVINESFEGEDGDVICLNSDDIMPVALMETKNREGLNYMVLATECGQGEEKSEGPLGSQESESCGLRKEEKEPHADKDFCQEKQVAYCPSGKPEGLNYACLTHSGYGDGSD
T2 sequence (P08922 whole entry, stated change not applied): as the sequence (P08922 whole entry L2026M, form open) above, with M2026L counted along it

EC50 ([4]; HCC78 cells, 4 days, MTT) [nM]	HCC-78 PROL pEC50 ([4]; HCC78 cells, 4 days, MTT)	Compound	IC50 (Ros1 enzyme) [nM]	CC50 [1] [nM]	BaF3-ROS1-IL3 pIC50 [2]	Ba/F3 Ros1 L2026M (-IL-3) pIC50 [3]	EC50 [4] [nM]	CC50 [1, 5] [nM]
–	–	CC(C)c1ccc(COc2ccc(-c3c(-c4ccncc4)nn4c3CN(CCO)CC4)c(F)c2)cc1 [Compound 187]	79.4	> 10000	7.2	6.4	100	–
–	–	Cc1cc(-c2c(-c3ccncc3)nn3c2C(=O)N(CCO)CC3)ccc1OCc1ccc(C(C)C)cc1 [Compound 31]	1580	> 10000	6.3	5.9	6310	–
251	–	Fc1cc(OCc2ccc(C3CC3)cc2)ccc1-c1c(-c2ccncc2)nn2c1CNCC2 [Compound 184]	100	–	7.3	6.6	–	> 10000
–	–	CC(C)c1ccc(COc2ccc(-c3c(-c4ccncc4)nn4c3C(=O)NCC4)cc2)cc1OCCO [Compound 89]	31.6	> 10000	7.6	7.1	200	–
794	–	CNC(=O)CN1CCn2nc(-c3ccncn3)c(-c3ccc(OCc4ccc(C(C)C)cc4)cc3)c2C1=O [Compound 164]	158	–	7.0	6.7	–	> 10000
3980	–	CC(C)c1ccc(C(CO)Oc2ccc(-c3c(-c4ccncc4)nn4c3C(=O)NCC4)cc2)cc1 (stereo not shown) [Compound 146]	2000	–	6.2	7.6	–	> 10000
501	–	CC(C)c1ccc(COc2ccc(-c3c(-c4ccncc4)nn4c3C(=O)N(CCN)CC4)cc2)cc1 [Compound 59]	63.1	–	6.4	~6.1	–	5010
631	–	CNCCN1CCn2nc(-c3ccncc3)c(-c3ccc(OCc4ccc(C(C)C)cc4)cc3)c2C1=O [Compound 60]	63.1	–	6.6	6.2	–	3980
316	–	CNCCc1cc(COc2ccc(-c3c(-c4ccncc4)nn4c3C(=O)N(CCO)CC4)cc2)ccc1C(C)C [Compound 235]	25.1	–	6.7	6.5	–	> 10000
–	–	CC(C)c1ccc(COc2ccc(-c3c(-c4ccncc4)nn4c3C(=O)N(CC3CNC(=O)O3)CC4)cc2)cc1 (stereo not shown) [Compound 56]	39.8	> 10000	7.5	7.0	126	–
–	–	CC(C)c1ccc(COc2ccc(-c3c(-c4ccncc4)nn4c3C(=O)N(C)C(CO)C4)cc2)cc1 (stereo not shown) [Compound 196]	158	> 10000	6.9	6.4	631	–
–	–	CC(C)c1ccc(COc2ccc(-c3c(-c4ccncc4)nn4c3C(=O)N(CCNCC(F)(F)F)CC4)cc2)cc1 [Compound 62]	200	> 10000	7.0	6.6	501	–
–	–	CC(C)c1ccc(COc2ccc(-c3c(-c4ccncc4)nn4c3C(=O)NCC4)cc2)cc1CC(O)CO (stereo not shown) [Compound 91]	31.6	> 10000	7.3	6.6	63.1	–
–	–	CNC(=O)CN1CCn2nc(-c3ccncc3)c(-c3ccc(OCc4ccc(C(C)C)cc4)cc3F)c2C1 [Compound 209]	63.1	5010	7.5	7.5	501	–
3160	–	CNC(=O)C(Oc1ccc(-c2c(-c3ccncc3)nn3c2C(=O)NCC3)cc1)c1ccc(C(C)C)cc1 (stereo not shown) [Compound 217]	398	–	6.3	6.0	–	> 10000
–	–	CC(CO)c1ccc(COc2ccc(-c3c(-c4ccncc4)nn4c3C(=O)N(CCO)CC4)cc2)cc1 (stereo not shown) [Compound 128]	1260	> 10000	6.6	6.2	1000	–
1000	–	CC(C)c1ccc(COc2ccc(-c3c(-c4ccncc4)nn4c3C(=O)N(CCCN)CC4)cc2)cc1 [Compound 58]	20	–	7.3	7.0	–	6310
2000	–	O=C1c2c(-c3ccc(OCc4ccc(C5CC5)nc4)cc3)c(-c3ccncc3)nn2CCN1CC(O)CO (stereo not shown) [Compound 140]	251	–	6.4	5.8	–	> 10000
–	6.8	CC(C)c1ccc(COc2ccc(-c3c(-c4ccncc4)nn4c3C(=O)N(C(C)CO)CC4)cc2)cc1 (single isomer, unassigned) [Compound 39]	79.4	–	7.3	7.0	–	> 10000
398	–	O=C1c2c(-c3ccc(OCc4ccc(C5CC5)nc4)cc3F)c(-c3ccncc3)nn2CCN1CC(O)CO (stereo not shown) [Compound 208]	63.1	–	6.8	6.3	–	> 10000
–	–	O=C1c2c(-c3ccc(OCc4ccc(C5CC5)nc4)cc3F)c(-c3ccncc3)nn2CCN1CCO [Compound 207]	20	> 10000	7.1	6.5	501	–
–	–	CC(C)c1ccc(COc2cc(F)c(-c3c(-c4ccncc4)nn4c3C(=O)NCC4)cc2F)cc1 [Compound 14]	6.31	> 10000	7.8	8.2	< 31.6	–
126	–	CNCCc1cc(COc2ccc(-c3c(-c4ccncc4)nn4c3C(=O)N(C)CC4)cc2)ccc1C(C)C [Compound 236]	15.8	–	7.6	7.4	–	3980
–	–	CC(C)c1ccc(COc2cc(F)c(-c3c(-c4ccncc4)nn4c3C(=O)N(CCO)CC4)cc2F)cc1 [Compound 203]	3.98	> 10000	8.2	8.0	10	–
–	–	CC(C)c1ccc(COc2c(F)cc(-c3c(-c4ccncc4)nn4c3C(=O)NCC4)cc2F)cc1 [Compound 15]	39.8	> 10000	7.5	7.5	50.1	–

Compound	EC50 ([4]; HCC78 cells, 4 days, MTT) [nM]	HCC-78 PROL pEC50 ([4]; HCC78 cells, 4 days, MTT)	IC50 (Ros1 enzyme) [nM]	CC50 [1] [nM]	BaF3-ROS1-IL3 pIC50 [2]	Ba/F3 Ros1 L2026M (-IL-3) pIC50 [3]	EC50 [4] [nM]	CC50 [1, 5] [nM]
C[Si](C)(C)c1ccc(COc2ccc(-c3c(-c4ccncc4)nn4c3C(=O)NCC4)cc2)cc1 [Compound 232]	2510	–	2000	–	6.7	6.5	–	> 10000
